In patent EP0360258B1, “Amino acid quinoline and naphthyridine derivatives” (ABBOTT LABORATORIES, priority 1988, dated 1990):
Values after ≈ are worked out from the molar mass of the structure shown. Counter-ions that a name gives are not always drawn. Like-named read-outs stand apart in the source and are kept apart here.

Assays:
ESCHERICHIA COLI SS = experiment: In vitro antibacterial activity, agar dilution MIC (BHIA); assay type: cell-based; conditions: Brain Heart Infusion Agar (BHIA), 36° C, 18 h, strain SS
[1] = tested on: PSEUDOMONAS AERUGINOSA BMH10; experiment: as above; assay type: cell-based; conditions: 18 h
[2] = tested on: ENTEROBACTER AEROGENES ATCC 13048; experiment: as above; assay type: cell-based; conditions: Klebsiella aerogenes
STR[…] 508 = experiment: as above; assay type: cell-based; conditions: Streptococcus agalactiae, 18 h
From the text: (§1) The MIC results are in ug/ml. TABLE VII

[3] = Plasma level in dog after oral dose; assay type: in vivo; conditions: 10 mg/kg, 10 mg equivalent/kg oral dose, HPLC
From the text: The plasma samples were collected and determined by the HPLC analysis.

STR[…] 2548 INDUC = experiment: In vitro antibacterial activity, agar dilution MIC (BHIA); assay type: cell-based; conditions: Streptococcus pyogenes, 18 h
ESCHERICHIA COLI DC-2 = experiment: In vitro antibacterial activity, agar dilution MIC (BHIA); assay type: cell-based; conditions: 18 h
ESCHERICHIA COLI JUHL = experiment: as above; assay type: cell-based; conditions: 18 h
[4] = tested on: STREPTOCOCCUS BOVIS A5169; experiment: as above; assay type: cell-based; conditions: Streptococcus equinus, 18 h
ACINETOBACTER SP CMX 669 = experiment: as above; assay type: cell-based; conditions: 18 h
[5] = tested on: KLEBSIELLA PNEUMONIAE ATCC 8045; experiment: as above; assay type: cell-based
[6] = tested on: STREPTOCOCCUS PYOGENES 930 CONST; experiment: as above; assay type: cell-based; conditions: 18 h
ESCHERICHIA COLI H560 = experiment: as above; assay type: cell-based; conditions: 18 h
M[…] ATCC 9341 = experiment: as above; assay type: cell-based; conditions: Micrococcus luteus, ATCC9341, 18 h
From the text: as §1

STR[…] EES61 = experiment: as above; assay type: cell-based; conditions: Streptococcus pyogenes, 18 h
From the text: as §1

M[…] ATCC 4698 = experiment: as above; assay type: cell-based; conditions: Micrococcus luteus, ATCC4698, 18 h
From the text: as §1

P[…] 296I = experiment: as above; assay type: cell-based; conditions: Burkholderia cepacia, 18 h
From the text: as §1

EN[…] ATCC 8043 = experiment: as above; assay type: cell-based; conditions: Enterococcus faecium, ATCC8043, 18 h
From the text: as §1

[7] = tested on: PSEUDOMONAS AERUGINOSA K799/61; experiment: as above; assay type: cell-based; conditions: Brain Heart Infusion Agar (BHIA), 36° C, 18 h, strain K799/61
ESCHERICHIA COLI KNK 437 = experiment: as above; assay type: cell-based; conditions: Brain Heart Infusion Agar (BHIA), 36° C, 18 h, strain KNK 437
[8] = tested on: PROVIDENCIA STUARTII CMX 640; experiment: as above; assay type: cell-based; conditions: 18 h
[9] = tested on: PSEUDOMONAS AERUGINOSA K799/WT; experiment: as above; assay type: cell-based; conditions: Brain Heart Infusion Agar (BHIA), 36° C, 18 h, strain K799/WT
From the text: as §1

[10] = tested on: PSEUDOMONAS AERUGINOSA A5007; experiment: as above; assay type: cell-based; conditions: Brain Heart Infusion Agar (BHIA), 36° C, 18 h, strain A5007
From the text: as §1

[11] = Brain Heart Infusion Agar (BHIA), 36° C, strain BMH10, read-out: MIC
[12] = ATCC13048, Brain Heart Infusion Agar (BHIA), 36° C, 18 h, strain ATCC 13048, read-out: MIC
[13] = Brain Heart Infusion Agar (BHIA), 36° C, strain JUHL, read-out: MIC
[14] = Brain Heart Infusion Agar (BHIA), 36° C, strain CMX 669, read-out: MIC
[15] = ATCC8045, Brain Heart Infusion Agar (BHIA), 36° C, 18 h, strain ATCC 8045, read-out: MIC
[16] = Brain Heart Infusion Agar (BHIA), 36° C, strain CMX 640, read-out: MIC
[17] = Brain Heart Infusion Agar (BHIA), 36° C, strain A5169, read-out: MIC

## NC1CCN(c2nc3c(cc2F)c(=O)c(C(=O)O)cn3-c2ccc(F)cc2F)C1 (centres unmarked) [tosufloxacin, 7-(3-amino-1-pyrrolidinyl)-6-fluoro,1-(2,4-difluorophenyl)-1,4-dihydro-4-oxo-1,8-naphthyridine-3-carboxylic acid, reference compound]
ESCHERICHIA COLI SS
  MIC: 0.005 µg/mL (≈ 0.0124 µM)
[1]; [11]
  MIC: 0.1 µg/mL (≈ 0.247 µM)
[2]; [12]
  MIC: 0.05 µg/mL (≈ 0.124 µM)
STR[…] 508
  MIC: 0.39 µg/mL (≈ 0.965 µM)
[3]
  AUC(0-t) at 32 h: 5300 ng·h/mL
[3]; read-out: C max (range)
  Cmax: 670 ng/mL
STR[…] 2548 INDUC
  MIC: 0.1 µg/mL (≈ 0.247 µM)
physchem; pH 7.4
  solubility: 10 µg/mL (≈ 24.7 µM)
physchem; water
  solubility: 650 µg/mL (≈ 1610 µM)
ESCHERICHIA COLI DC-2
  MIC: 0.39 µg/mL (≈ 0.965 µM)
ESCHERICHIA COLI JUHL; [13]
  MIC: 0.02 µg/mL (≈ 0.0495 µM)
[4]
  MIC: 0.39 µg/mL (≈ 0.965 µM)
ACINETOBACTER SP CMX 669; [14]
  MIC: 0.1 µg/mL (≈ 0.247 µM)
[5]; [15]
  MIC: 0.02 µg/mL (≈ 0.0495 µM)

## NCC(=O)N[C@@H](Cc1ccccc1)C(=O)NC1CCN(c2nc3c(cc2F)c(=O)c(C(=O)O)cn3-c2ccc(F)cc2F)C1 (stereo partly drawn) [Example 1b, 7-[(3-Gly-L-Phe-amino)-1-pyrrolidinyl]-1-(2,4-difluorophenyl)-6-fluoro-1,4-dihydro-4-oxo-1,8-naphthyridine-3-carboxylic acid hydrochloride]
[6]
  MIC: 0.78 µg/mL
ESCHERICHIA COLI SS
  MIC: 0.2 µg/mL
[1]; [11]
  MIC: 25 µg/mL
[2]; [12]
  MIC: 12.5 µg/mL
ESCHERICHIA COLI H560
  MIC: 1.56 µg/mL
M[…] ATCC 9341
  MIC: 6.25 µg/mL
STR[…] EES61
  MIC: 1.56 µg/mL
M[…] ATCC 4698
  MIC: 0.78 µg/mL
STR[…] 508
  MIC: 1.56 µg/mL
P[…] 296I
  MIC: 50 µg/mL
EN[…] ATCC 8043
  MIC: 1.56 µg/mL
[7]
  MIC: 12.5 µg/mL
STR[…] 2548 INDUC
  MIC: 0.78 µg/mL
ESCHERICHIA COLI KNK 437
  MIC: 25 µg/mL
physchem; pH 7.4
  solubility: 1040 µg/mL
physchem; water
  solubility: > 98000 µg/mL
ESCHERICHIA COLI DC-2
  MIC: 100 µg/mL
ESCHERICHIA COLI JUHL; [13]
  MIC: 3.12 µg/mL
[8]
  MIC: 100 µg/mL
[4]
  MIC: 1.56 µg/mL
ACINETOBACTER SP CMX 669; [14]
  MIC: 12.5 µg/mL
[5]; [15]
  MIC: 12.5 µg/mL

## CC(N)C(=O)NC(C)C(=O)NC1CCN(c2nc3c(cc2F)c(=O)c(C(=O)O)cn3-c2ccc(F)cc2F)C1 (centres unmarked) [Example 15]
[6]
  MIC: 12.5 µg/mL (≈ 22.9 µM)
ESCHERICHIA COLI SS
  MIC: 0.39 µg/mL (≈ 0.714 µM)
[1]; [11]
  MIC: 100 µg/mL (≈ 183 µM)
[2]; [12]
  MIC: 25 µg/mL (≈ 45.7 µM)
ESCHERICHIA COLI H560; Brain Heart Infusion Agar (BHIA), 36° C, strain H560, read-out: MIC
  MIC: 6.2 µg/mL (≈ 11.3 µM)
M[…] ATCC 9341
  MIC: > 100 µg/mL
STR[…] EES61
  MIC: 12.5 µg/mL (≈ 22.9 µM)
M[…] ATCC 4698
  MIC: 100 µg/mL (≈ 183 µM)
STR[…] 508
  MIC: 12.5 µg/mL (≈ 22.9 µM)
[9]
  MIC: 50 µg/mL (≈ 91.5 µM)
P[…] 296I
  MIC: 50 µg/mL (≈ 91.5 µM)
EN[…] ATCC 8043
  MIC: 50 µg/mL (≈ 91.5 µM)
[7]
  MIC: 3.1 µg/mL (≈ 5.67 µM)
STR[…] 2548 INDUC
  MIC: 12.5 µg/mL (≈ 22.9 µM)
ESCHERICHIA COLI KNK 437
  MIC: 50 µg/mL (≈ 91.5 µM)
physchem; pH 7.4
  solubility: 1070 µg/mL (≈ 1960 µM)
physchem; water
  solubility: > 70000 µg/mL
ESCHERICHIA COLI DC-2; Brain Heart Infusion Agar (BHIA), 36° C, strain DC-2, read-out: MIC
  MIC: 100 µg/mL (≈ 183 µM)
ESCHERICHIA COLI JUHL
  MIC: 12.5 µg/mL (≈ 22.9 µM)
[8]; [16]
  MIC: 100 µg/mL (≈ 183 µM)
[4]; [17]
  MIC: 50 µg/mL (≈ 91.5 µM)
ACINETOBACTER SP CMX 669
  MIC: 12.5 µg/mL (≈ 22.9 µM)
[5]; ATCC8045, 18 h
  MIC: 12.5 µg/mL (≈ 22.9 µM)

## NC(Cc1ccccc1)C(=O)NC1CCN(c2nc3c(cc2F)c(=O)c(C(=O)O)cn3-c2ccc(F)cc2F)C1 (centres unmarked) [Example 5]
[6]; Brain Heart Infusion Agar (BHIA), 36° C, strain 930 CONST, read-out: MIC
  MIC: 1.56 µg/mL (≈ 2.83 µM)
ESCHERICHIA COLI SS
  MIC: 0.1 µg/mL (≈ 0.181 µM)
[1]
  MIC: 25 µg/mL (≈ 45.3 µM)
[2]; ATCC13048, 18 h
  MIC: 12.5 µg/mL (≈ 22.7 µM)
ESCHERICHIA COLI H560
  MIC: 3.1 µg/mL (≈ 5.62 µM)
M[…] ATCC 9341
  MIC: 25 µg/mL (≈ 45.3 µM)
STR[…] EES61
  MIC: 3.1 µg/mL (≈ 5.62 µM)
M[…] ATCC 4698
  MIC: 12.5 µg/mL (≈ 22.7 µM)
STR[…] 508
  MIC: 3.1 µg/mL (≈ 5.62 µM)
[10]
  MIC: 50 µg/mL (≈ 90.7 µM)
[9]
  MIC: 25 µg/mL (≈ 45.3 µM)
P[…] 296I
  MIC: > 100 µg/mL
EN[…] ATCC 8043
  MIC: 3.1 µg/mL (≈ 5.62 µM)
[7]
  MIC: 1.56 µg/mL (≈ 2.83 µM)
STR[…] 2548 INDUC
  MIC: 0.78 µg/mL (≈ 1.41 µM)
ESCHERICHIA COLI KNK 437
  MIC: 100 µg/mL (≈ 181 µM)
physchem; pH 7.4
  solubility: 340 µg/mL (≈ 616 µM)
physchem; water
  solubility: > 101000 µg/mL
ESCHERICHIA COLI DC-2
  MIC: 50 µg/mL (≈ 90.7 µM)
ESCHERICHIA COLI JUHL
  MIC: 3.1 µg/mL (≈ 5.62 µM)
[8]; [16]
  MIC: > 100 µg/mL
[4]; [17]
  MIC: 6.2 µg/mL (≈ 11.2 µM)
ACINETOBACTER SP CMX 669
  MIC: 12.5 µg/mL (≈ 22.7 µM)
[5]; [15]
  MIC: 1.56 µg/mL (≈ 2.83 µM)
